Literature values as cited in US7879374B2, “Composition including superoxide dismutase and prickly-pear cactus for minimizing and preventing hangovers” (priority 2005, dated 2011).

Legend:
[1] = by speeding the use of fat during exercise
[2] = rat, in vivo, po
[3] = system: hepatic metabolizing enzymes for lipids and alcohol
[4] = recent study of one-hundred twenty young females
[5] = liver of rats given sesamin vs vehicle

## Cn1c(=O)c2c(ncn2C)n(C)c1=O [Caffeine]
[1]
  increase in endurance: about fifteen

## c1cc2c(cc1[C@H]1OC[C@H]3[C@@H]1CO[C@@H]3c1ccc3c(c1)OCO3)OCO2 [Sesamin]
[2]
  dose of sesamin detected in bile as glucuronides of catechol metabolites: Over 40 % of the dose
[3]; [5]
  gene expression levels of the late stage enzymes of beta-oxidation (trifunctional enzyme, acyl-CoA oxidase, bifunctional enzyme, 3-ketoacyl-CoA thiolase): significantly increased
  gene expression of alcohol dehydrogenase: not changed
  gene expression of aldehyde dehydrogenase: about 3 fold
  gene expression of liver catalase: not changed
  transcription of the genes encoding the enzymes for fatty acid synthesis: decreased
[3]; rat, in vivo
  gene expression of CYP2E1: not changed

## Cc1ncc(C[n+]2csc(CCO)c2C)c(N)n1 [Thiamin]
[4]
  effects on mood and cognitive functioning: positive effects
